Experimental data as given in ChEMBL document CHEMBL1201862, “PubChem BioAssay data set” (2004).
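A five-concentration, 48-hour dose response in 96-well plates underlies each endpoint, interpolated linearly between surrounding concentrations. The concentration for 50% growth inhibition is given as GI50.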 Calls of active or inactive are those of the source. Cut-off read from the data, not from the text of the source: active = GI50 up to about 1.1 µM and inactive = higher.

Experiments:
Assay in all cases: inhibition of tumour cell growth, NCI panel, 48 h
ACHN = test system: ACHN
HOP-92 = test system: HOP-92
SW-620 = test system: SW-620
SK-MEL-2 = test system: SK-MEL-2
NCI-H23 = test system: NCI-H23
SF-295 = test system: SF-295
UACC-257 = test system: UACC-257
K562 = test system: K562
UO-31 = test system: UO-31
SF-268 = test system: SF-268
SK-MEL-5 = test system: SK-MEL-5
SK-MEL-28 = test system: SK-MEL-28
EKVX = test system: EKVX
DLD-1 = test system: DLD-1
Malme-3M = test system: Malme-3M
SNB-75 = test system: SNB-75
HCT-116 = test system: HCT-116
HT-29 = test system: HT-29
SK-OV-3 = test system: SK-OV-3
SNB-78 = test system: SNB-78
UACC-62 = test system: UACC-62
IGROV-1 = test system: IGROV-1
HCT-15 = test system: HCT-15
COLO 205 = test system: COLO 205
CAKI-1 = test system: CAKI-1
KM12 = test system: KM12
SF-539 = test system: SF-539
A498 = test system: A498
M14 = test system: M14
786-0 = test system: 786-0
LXFL 529 = test system: LXFL 529
OVCAR-8 = test system: OVCAR-8
OVCAR-3 = test system: OVCAR-3
NCI-H460 = test system: NCI-H460
M19-MEL = test system: M19-MEL
HOP-62 = test system: HOP-62
LOX IMVI = test system: LOX IMVI
CCRF-CEM = test system: CCRF-CEM
SNB-19 = test system: SNB-19
NCI-H522 = test system: NCI-H522
T47D = test system: T47D
HCC 2998 = test system: HCC 2998
SR = test system: SR
A549 = test system: A549
RPMI-8226 = test system: RPMI-8226
Hs-578T = test system: Hs-578T
MOLT-4 = test system: MOLT-4
PC-3 = test system: PC-3
MCF7 = test system: MCF7
TK-10 = test system: TK-10
NCI/ADR-RES = test system: NCI/ADR-RES
MDA-N = test system: MDA-N
MDA-MB-435 = test system: MDA-MB-435
OVCAR-4 = test system: OVCAR-4
NCI-H226 = test system: NCI-H226
U-251 = test system: U-251
RXF 393 = test system: RXF 393
BT-549 = test system: BT-549
SN12C = test system: SN12C
DU-145 = test system: DU-145
HL-60 = test system: HL-60
MDA-MB-231 = test system: MDA-MB-231
OVCAR-5 = test system: OVCAR-5
DMS-273 = test system: DMS-273
KM-20L2 = test system: KM-20L2

CCOC(=O)N1CCC(N[C@@H]2c3cc4c(cc3[C@@H](c3cc(OC)c(O)c(OC)c3)[C@H]3C(=O)OC[C@@H]32)OCO4)CC1
GI50 (ACHN): 0.431 µM (active)
GI50 (HOP-92): 0.5 µM (active)
GI50 (SW-620): 2.58 µM (inactive)
GI50 (SK-MEL-2): 5.81 µM (inactive)
GI50 (NCI-H23): 0.527 µM (active)
GI50 (SF-295): 0.499 µM (active)
GI50 (UACC-257): 5.16 µM (inactive)
GI50 (K562): 3.98 µM (inactive)
GI50 (UO-31): 1.02 µM (active)
GI50 (SF-268): 3.5 µM (inactive)
GI50 (SK-MEL-5): 1.48 µM (inactive)
GI50 (SK-MEL-28): 7.08 µM (inactive)
GI50 (EKVX): 2.69 µM (inactive)
GI50 (DLD-1): 5.21 µM (inactive)
GI50 (Malme-3M): 3.46 µM (inactive)
GI50 (SNB-75): 2.67 µM (inactive)
GI50 (HCT-116): 3.4 µM (inactive)
GI50 (HT-29): 4.13 µM (inactive)
GI50 (SK-OV-3): 0.8 µM (active)
GI50 (SNB-78): 10.2 µM (inactive)
GI50 (UACC-62): 1.03 µM (active)
GI50 (IGROV-1): 2.9 µM (inactive)
GI50 (HCT-15): 0.796 µM
GI50 (COLO 205): 4.3 µM (inactive)
GI50 (CAKI-1): 0.478 µM (active)
GI50 (KM12): 2.86 µM (inactive)
GI50 (SF-539): 1.23 µM (inactive)
GI50 (A498): 0.358 µM (active)
GI50 (M14): 1.7 µM (inactive)
GI50 (786-0): 1.15 µM (inactive)
GI50 (LXFL 529): 7.53 µM (inactive)
GI50 (OVCAR-8): 1.85 µM (inactive)
GI50 (OVCAR-3): 5.06 µM (inactive)
GI50 (NCI-H460): 0.065 µM (active)
GI50 (M19-MEL): 3.12 µM (inactive)
GI50 (HOP-62): 0.714 µM (active)
GI50 (LOX IMVI): 1.26 µM (inactive)
GI50 (CCRF-CEM): 0.697 µM (active)
GI50 (SNB-19): 0.69 µM (active)

COc1ccc(C2C(C(=O)c3ccccc3)=C(O)C(O)(CC(=O)c3ccccc3)N2c2ccc(OC)cc2)cc1 (configuration not stated)
GI50 (ACHN): 21 µM (inactive)
GI50 (HOP-92): 4.2 µM (inactive)
GI50 (NCI-H522): 4.35 µM (inactive)
GI50 (SW-620): 9.08 µM (inactive)
GI50 (SK-MEL-2): 16.1 µM (inactive)
GI50 (T47D): 18.5 µM (inactive)
GI50 (HCC 2998): 11.1 µM (inactive)
GI50 (NCI-H23): 21.1 µM (inactive)
GI50 (SF-295): 12.3 µM (inactive)
GI50 (UACC-257): 7.94 µM (inactive)
GI50 (K562): 16.6 µM (inactive)
GI50 (SR): 4.66 µM (inactive)
GI50 (UO-31): 11.5 µM (inactive)
GI50 (SF-268): 33.7 µM (inactive)
GI50 (SK-MEL-5): 9.57 µM (inactive)
GI50 (A549): 22.4 µM (inactive)
GI50 (RPMI-8226): 5.04 µM (inactive)
GI50 (Hs-578T): 28.6 µM (inactive)
GI50 (MOLT-4): 12.5 µM (inactive)
GI50 (SK-MEL-28): 28.6 µM (inactive)
GI50 (EKVX): 24.6 µM (inactive)
GI50 (PC-3): 11.6 µM (inactive)
GI50 (MCF7): 11.9 µM (inactive)
GI50 (Malme-3M): 28 µM (inactive)
GI50 (SNB-75): 34.1 µM (inactive)
GI50 (TK-10): 16.3 µM (inactive)
GI50 (HCT-116): 9.29 µM (inactive)
GI50 (NCI/ADR-RES): 12.5 µM (inactive)
GI50 (MDA-N): 20.9 µM (inactive)
GI50 (HT-29): 19.3 µM (inactive)
GI50 (MDA-MB-435): 18.6 µM (inactive)
GI50 (SK-OV-3): 25.2 µM (inactive)
GI50 (OVCAR-4): 19.1 µM (inactive)
GI50 (NCI-H226): 16.1 µM (inactive)
GI50 (U-251): 8.09 µM (inactive)
GI50 (RXF 393): 9.38 µM (inactive)
GI50 (UACC-62): 22.8 µM (inactive)
GI50 (IGROV-1): 21.9 µM (inactive)
GI50 (HCT-15): 9.38 µM
GI50 (COLO 205): 17.6 µM (inactive)
GI50 (BT-549): 7.55 µM (inactive)
GI50 (CAKI-1): 24.5 µM (inactive)
GI50 (KM12): 11.2 µM (inactive)
GI50 (SF-539): 24.4 µM (inactive)
GI50 (A498): 44.6 µM (inactive)
GI50 (M14): 31.2 µM (inactive)
GI50 (786-0): 16.8 µM (inactive)
GI50 (SN12C): 21.6 µM (inactive)
GI50 (OVCAR-8): 10.4 µM (inactive)
GI50 (DU-145): 38.4 µM (inactive)
GI50 (HL-60): 5.78 µM (inactive)
GI50 (OVCAR-3): 7.67 µM (inactive)
GI50 (NCI-H460): 24.4 µM (inactive)
GI50 (HOP-62): 18.8 µM (inactive)
GI50 (LOX IMVI): 15.2 µM (inactive)
GI50 (MDA-MB-231): 19.2 µM (inactive)
GI50 (CCRF-CEM): 3.52 µM (inactive)
GI50 (OVCAR-5): 23.6 µM (inactive)
GI50 (SNB-19): 12.2 µM (inactive)

CN(C)C(=O)OC1C(=O)N(C)c2ccc(Cl)cc2C2(c3ccccc3)N1C2(Cl)Cl (configuration not stated)
GI50 (DMS-273): 72.4 µM (inactive)
GI50 (ACHN): > 100 µM (inactive)
GI50 (HOP-92): 18.7 µM (inactive)
GI50 (NCI-H522): 46 µM (inactive)
GI50 (SW-620): > 100 µM (inactive)
GI50 (SK-MEL-2): > 100 µM (inactive)
GI50 (HCC 2998): > 100 µM (inactive)
GI50 (NCI-H23): 47.8 µM (inactive)
GI50 (SF-295): 77.1 µM (inactive)
GI50 (UACC-257): 66.8 µM (inactive)
GI50 (K562): 56.6 µM (inactive)
GI50 (SR): 49.7 µM (inactive)
GI50 (UO-31): 49.2 µM (inactive)
GI50 (SF-268): > 100 µM (inactive)
GI50 (SK-MEL-5): 40.3 µM (inactive)
GI50 (RPMI-8226): 46.5 µM (inactive)
GI50 (MOLT-4): 47.9 µM (inactive)
GI50 (SK-MEL-28): > 100 µM (inactive)
GI50 (EKVX): 44.4 µM (inactive)
GI50 (DLD-1): 55.1 µM (inactive)
GI50 (Malme-3M): > 100 µM (inactive)
GI50 (SNB-75): 69.3 µM (inactive)
GI50 (TK-10): 56.5 µM (inactive)
GI50 (HCT-116): 62.7 µM (inactive)
GI50 (HT-29): > 100 µM (inactive)
GI50 (SK-OV-3): 82.8 µM (inactive)
GI50 (OVCAR-4): > 100 µM (inactive)
GI50 (NCI-H226): 38.7 µM (inactive)
GI50 (U-251): 45.3 µM (inactive)
GI50 (RXF 393): 69.2 µM (inactive)
GI50 (UACC-62): 64.7 µM (inactive)
GI50 (IGROV-1): > 100 µM (inactive)
GI50 (HCT-15): 60.4 µM
GI50 (COLO 205): > 100 µM (inactive)
GI50 (CAKI-1): > 100 µM (inactive)
GI50 (KM12): 62.1 µM (inactive)
GI50 (M14): > 100 µM (inactive)
GI50 (KM-20L2): 40 µM (inactive)
GI50 (LXFL 529): > 100 µM (inactive)
GI50 (SN12C): 59.3 µM (inactive)
GI50 (OVCAR-8): 95.5 µM (inactive)
GI50 (HL-60): 29.4 µM (inactive)
GI50 (OVCAR-3): 53.8 µM (inactive)
GI50 (NCI-H460): > 100 µM (inactive)
GI50 (M19-MEL): > 100 µM (inactive)
GI50 (HOP-62): 54.8 µM (inactive)
GI50 (LOX IMVI): > 100 µM (inactive)
GI50 (CCRF-CEM): 75.2 µM (inactive)
GI50 (OVCAR-5): > 100 µM (inactive)
